In the supplement of paper PMC10307832:

Assays:
Experiment in all cases: relative viability (nuclei count vs DMSO), 5 days (fraction); higher = more cells survive
MLN4924 + Tozasertib = compound: NS(=O)(=O)OC[C@@H]1C[C@@H](n2ccc3c(N[C@H]4CCc5ccccc54)ncnc32)C[C@@H]1O [MLN4924] + Cc1cc(Nc2cc(N3CCN(C)CC3)nc(Sc3ccc(NC(=O)C4CC4)cc3)n2)n[nH]1 [Tozasertib] (partner 0.1 µM)
Summary of the method: (§1)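 Lung cancer cell lines in 1536-well plates were dosed by pin tool the day after seeding, either with one drug alone or with a fixed anchor-drug dose plus five library-drug doses (not always all listed) in √10 steps. After 5 days, cells were fixed and their nuclei stained in one step (final 0.05% Triton X-100, 1% formaldehyde, 1 ug/ml Hoechst), then counted on 4× images. Relative viability is the nuclei count in treated wells divided by that in vehicle wells. Values are medians of duplicate plates.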

Carboplatin + OSI-027 = compound: C1CC(C1)(C(=O)O)C(=O)O.[NH2-].[NH2-].[Pt+2] [Carboplatin] + COc1cccc2cc(-c3nc([C@H]4CC[C@H](C(=O)O)CC4)n4ncnc(N)c34)[nH]c12 [OSI-027] (partner 0.5 µM)
Summary of the method: as §1

Carboplatin + Trametinib = compound: C1CC(C1)(C(=O)O)C(=O)O.[NH2-].[NH2-].[Pt+2] [Carboplatin] + CC(=O)Nc1cccc(-n2c(=O)n(C3CC3)c(=O)c3c(Nc4ccc(I)cc4F)n(C)c(=O)c(C)c32)c1 [Trametinib] (partner 0.02 µM)
Summary of the method: as §1

MLN4924 + Linsitinib = compound: NS(=O)(=O)OC[C@@H]1C[C@@H](n2ccc3c(N[C@H]4CCc5ccccc54)ncnc32)C[C@@H]1O [MLN4924] + C[C@]1(O)C[C@@H](c2nc(-c3ccc4ccc(-c5ccccc5)nc4c3)c3c(N)nccn32)C1 [Linsitinib] (partner 1 µM)
Summary of the method: as §1

Cell Line | relative viability (MLN4924 + Tozasertib; first compound 0.04 µM) | relative viability (MLN4924 + Tozasertib; first compound 0.1265 µM) | relative viability (MLN4924 + Tozasertib; first compound 0.4 µM) | relative viability (MLN4924 + Tozasertib; first compound 1.265 µM) | relative viability (MLN4924 + Tozasertib; first compound 4 µM) | relative viability (Carboplatin + OSI-027; first compound 0.08 µM) | relative viability (Carboplatin + OSI-027; first compound 0.253 µM) | relative viability (Carboplatin + OSI-027; first compound 0.8 µM) | relative viability (Carboplatin + OSI-027; first compound 2.53 µM) | relative viability (Carboplatin + OSI-027; first compound 8 µM) | relative viability (Carboplatin + Trametinib; first compound 0.08 µM) | relative viability (Carboplatin + Trametinib; first compound 0.253 µM) | relative viability (Carboplatin + Trametinib; first compound 0.8 µM) | relative viability (Carboplatin + Trametinib; first compound 2.53 µM) | relative viability (Carboplatin + Trametinib; first compound 8 µM) | relative viability (MLN4924 + Linsitinib; first compound 0.04 µM) | relative viability (MLN4924 + Linsitinib; first compound 0.1265 µM) | relative viability (MLN4924 + Linsitinib; first compound 0.4 µM) | relative viability (MLN4924 + Linsitinib; first compound 1.265 µM) | relative viability (MLN4924 + Linsitinib; first compound 4 µM)
NCI-H1437 | 0.298 | 0.254 | 0.176 | 0.195 | 0.133 | 0.935 | 0.822 | 0.83 | 0.749 | 0.488 | 0.487 | 0.518 | 0.452 | 0.463 | 0.5 | 0.959 | 0.828 | 0.466 | 0.221 | 0.103
NCI-H1651 | 0.759 | 0.782 | 0.524 | 0.321 | 0.133 | 0.734 | 0.662 | 0.706 | 0.506 | 0.487 | 0.851 | 0.77 | 0.826 | 0.771 | 0.711 | 1.13 | 0.973 | 0.431 | 0.334 | 0.135
NCI-H1666 | 0.56 | 0.635 | 0.447 | 0.266 | 0.27 | 0.831 | 0.818 | 0.831 | 0.644 | 0.566 | 0.914 | 0.848 | 0.85 | 0.813 | 0.787 | 1.01 | 0.504 | 0.263 | 0.225 | 0.252
NCI-H1734 | 0.261 | 0.267 | 0.154 | 0.12 | 0.0994 | 0.707 | 0.674 | 0.63 | 0.528 | 0.572 | 0.69 | 0.718 | 0.659 | 0.637 | 0.501 | 1.01 | 1.09 | 0.519 | 0.178 | 0.155
NCI-H1755 | 0.529 | 0.411 | 0.291 | 0.208 | 0.209 | 0.823 | 0.786 | 0.712 | 0.729 | 0.74 | 0.823 | 0.78 | 0.752 | 0.82 | 0.7 | 1.07 | 0.701 | 0.447 | 0.159 | 0.2
NCI-H1793 | 0.337 | 0.356 | 0.368 | 0.252 | 0.168 | 0.32 | 0.337 | 0.284 | 0.296 | 0.312 | 0.39 | 0.455 | 0.48 | 0.386 | 0.431 | 1.12 | 0.857 | 0.845 | 0.327 | 0.168
NCI-H1915 | 0.399 | 0.362 | 0.395 | 0.212 | 0.159 | 0.616 | 0.576 | 0.673 | 0.601 | 0.408 | 0.325 | 0.29 | 0.296 | 0.288 | 0.257 | 1.05 | 0.82 | 0.898 | 0.213 | 0.222
NCI-H1944 | 0.233 | 0.226 | 0.235 | 0.159 | 0.117 | 0.539 | 0.407 | 0.41 | 0.382 | 0.317 | 0.439 | 0.419 | 0.439 | 0.362 | 0.338 | 1.38 | 1.19 | 1.02 | 0.257 | 0.37
NCI-H1975 | 0.675 | 0.836 | 0.796 | 0.451 | 0.241 | 0.901 | 0.823 | 0.713 | 0.762 | 0.754 | 0.329 | 0.391 | 0.33 | 0.371 | 0.388 | 0.991 | 1.17 | 0.825 | 0.234 | 0.226
NCI-H1993 | 0.489 | 0.478 | 0.51 | 0.449 | 0.498 | 0.463 | 0.556 | 0.566 | 0.51 | 0.498 | 0.564 | 0.51 | 0.561 | 0.404 | 0.497 | 0.937 | 0.719 | 0.68 | 0.632 | 0.584
NCI-H2009 | 0.724 | 0.433 | 0.257 | 0.126 | 0.0886 | 0.699 | 0.597 | 0.61 | 0.56 | 0.402 | 0.346 | 0.295 | 0.243 | 0.249 | 0.238 | 0.816 | 0.36 | 0.247 | 0.143 | 0.0806
NCI-H2023 | 0.35 | 0.31 | 0.171 | 0.0719 | 0.0659 | 0.481 | 0.424 | 0.318 | 0.198 | 0.123 | 0.599 | 0.633 | 0.542 | 0.343 | 0.163 | 0.661 | 0.36 | 0.112 | 0.0836 | 0.0754
NCI-H2085 | 0.855 | 0.894 | 0.827 | 0.78 | 0.48 | 0.719 | 0.849 | 0.783 | 0.64 | 0.628 | 0.498 | 0.558 | 0.512 | 0.518 | 0.527 | 0.868 | 0.839 | 0.577 | 0.313 | 0.235
NCI-H2087 | 0.189 | 0.257 | 0.244 | 0.0576 | 0.0697 | 0.656 | 0.56 | 0.536 | 0.508 | 0.41 | 0.242 | 0.257 | 0.171 | 0.198 | 0.175 | 0.775 | 0.776 | 0.311 | 0.172 | 0.187
NCI-H2126 | 0.821 | 0.813 | 0.514 | 0.339 | 0.25 | 0.812 | 0.654 | 0.677 | 0.635 | 0.595 | 0.586 | 0.613 | 0.562 | 0.614 | 0.536 | 0.747 | 0.69 | 0.576 | 0.327 | 0.391
